Measurements: PubChem BioAssay (NCI)
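Tested at 5 concentrations; 48 h exposure; 96-well plates; endpoints linearly interpolated, else capped at highest concentration. TGI marks complete inhibition of growth.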

Columns and labels:
Assay in all cases: inhibition of tumour cell growth, NCI panel, 48 h
[1] = tested on: 786-0 renal
[2] = tested on: A498 renal
[3] = tested on: A549 NSCLC
[4] = tested on: ACHN renal
[5] = tested on: BT-549 breast
[6] = tested on: CAKI-1 renal
[7] = tested on: CCRF-CEM leukemia
[8] = tested on: COLO 205 colon
[9] = tested on: EKVX NSCLC
[10] = tested on: HCC-2998 colon
[11] = tested on: HCT-116 colon
[12] = tested on: HCT-15 colon
[13] = tested on: HL-60(TB) leukemia
[14] = tested on: HOP-62 NSCLC
[15] = tested on: HOP-92 NSCLC
[16] = tested on: HS 578T breast
[17] = tested on: HT29 colon
[18] = tested on: IGROV1 ovarian
[19] = tested on: K-562 leukemia
[20] = tested on: KM12 colon
[21] = tested on: LOX IMVI melanoma
[22] = tested on: M14 melanoma
[23] = tested on: MALME-3M melanoma
[24] = tested on: MCF7 breast
[25] = tested on: MDA-MB-231 breast
[26] = tested on: MDA-MB-435
[27] = tested on: MDA-N
[28] = tested on: MOLT-4 leukemia
[29] = tested on: NCI-H226 lung
[30] = tested on: NCI-H23 lung
[31] = tested on: NCI-H460 lung
[32] = tested on: NCI/ADR-RES ovarian
[33] = tested on: OVCAR-3 ovarian
[34] = tested on: OVCAR-4 ovarian
[35] = tested on: OVCAR-5 ovarian
[36] = tested on: OVCAR-8 ovarian
[37] = tested on: PC-3 prostate
[38] = tested on: RXF 393 renal
[39] = tested on: SF-295 CNS
[40] = tested on: SF-539 CNS
[41] = tested on: SK-MEL-2 melanoma
[42] = tested on: SK-MEL-28 melanoma
[43] = tested on: SK-MEL-5 melanoma
[44] = tested on: SK-OV-3 ovarian
[45] = tested on: SN12C renal
[46] = tested on: SNB-19 CNS
[47] = tested on: SR leukemia
[48] = tested on: SW-620 colon
[49] = tested on: TK-10 renal
[50] = tested on: U251 CNS
[51] = tested on: UACC-257 melanoma
[52] = tested on: UACC-62 melanoma
[53] = tested on: UO-31 renal
[54] = tested on: DU-145 prostate
[55] = tested on: NCI-H522 lung
[56] = tested on: RPMI-8226 leukemia
[57] = tested on: SF-268 CNS
[58] = tested on: SNB-75 CNS

Measured: TGI

Cc1ccc(S(=O)(=O)N=Nc2c(O)[nH]c3c(Cl)cc(Cl)cc23)cc1
not listed: [54] | [55] | [56] | [57] | [58]
> 100 µM: all other assays above

O=C(CNc1ccc(Cl)cc1Cl)NC1C=Cc2ccc(S(=O)(=O)Nc3ccc(Cl)cc3Cl)cc2C1=O (configuration not stated)
not listed: [2] | [34] | [38] | [43]
> 100 µM: all other assays above
